Measured values reported in patent publication US8119640B2, “Hedgehog pathway antagonists methods of use” (The Board of Trustees of the Leland Stanford Junior …, priority 2008, dated 2012).
Entries after “also recorded” stand apart in the source; their conditions may differ. Read-outs that look alike come from different tables or passages of the source.

What was measured:
Format in all cases: cell-based
NIH-3T3 cells = assay: Microtubule cytoskeleton staining of HPI-treated NIH-3T3 cells; conditions: tubulin antibody staining
Experimental: Immunostaining of FLAG-Gli lines and NIH-3T3 cells. The FLAG-Gli1-expressing or FLAG-Gli2-expressing clonal cell lines were seeded into 24-well plates (80,000 cells/well) containing poly-D-lysine-coated 12-mm glass coverslips. […] The cells were subsequently fixed in 4% paraformaldehyde for 10 min at room temperature followed by treatment with methanol at −20° C. for 2 to 5 min. The cells were washed with PBS, permeabilized with 0.2% Triton X-100 for 2 to 5 min, and then blocked with PBS containing 2% BSA for 3 h at room temperature. The coverslips were then treated with mouse anti-FLAG M2 antibody (Sigma; 1:1,000 dilution in blocking buffer) and rabbit anti-Arl13b (10) (1:1,000 dilution in blocking buffer) for 3 h at room temperature and washed 3×5 min with PBS. The coverslips were incubated next with Alexa Fluor 594-conjugated goat anti-mouse IgG and Alexa Fluor 488-conjugated donkey anti-rabbit IgG antibodies (Invitrogen; 1:1,000 dilutions in blocking buffer) for 2 h at room temperature. After washes with PBS and a 5-min incubation with 4,6-diamidino-2-phenylindole (DAPI), the samples were mounted using Prolong Gold (Invitrogen) and imaged with an upright Leica DM4500B compound microscope. In order to quantify ciliary Gli2 localization, a circular region with diameter equal to the average width of cilia as determined by the anti-Arl13b antibody staining was manually placed at the distal end of each cilium. Regions were transferred from the anti-Arl13b antibody image to the anti-FLAG antibody image, and FLAG staining intensities within those areas were assessed. Between 40 and 80 cilia were analyzed for each condition. To normalize ciliary FLAG-Gli2 levels with respect to compound-dependent changes in total FLAG-Gli2 levels, the absolute average intensities for each condition were divided by the fold change in FLAG-Gli2 levels, as determined by the quantitative immunoblotting described above. Quantification of ciliary FLAG-Gli1 levels was performed in an analogous manner. Since HPI-4 perturbs primary cilia formation, only Arl13b-positive structures that could be clearly identified as cilia were used for Gli protein quanitification in HPI-4-treated cells. To assess cytoplasmic microtubule structures in cells treated with the HPIs, NIH-3T3 cells were cultured on poly-D-lysine-coated 12-mm glass coverslip, treated with the HPIs, and fixed with 4% paraformalehyde as described above. In place of the methanol treatment, the cells were permeabilitized with PBS containing 0.1% Triton X-100 for 1 min. Washing, blocking, and antibody incubation steps were then conducted as before, using mouse anti-<-tubulin (DM1-A, Sigma, 1:2,000 in blocking buffer). Secondary antibody treatments, DAPI staining, mounting, and imaging were then conducted as described above.

Gli1 = target: T1, Gli1 (Mus musculus, UniProt P47806); assay: Hh pathway activation mediated by overexpression of Gli1; conditions: for Inhibition of Hh pathway activity induced by Gli1 overexpression: NIH-3T3 cells, Gli-dependent firefly luciferase; for IC50: NIH-3T3 cells overexpressing Gli1, read-out: IC50 (uM) Gli1 Transfected or Infection
T1 construct: expressed in transfected cells; host or cells: NIH-3T3
T1 sequence (P47806 1-1111): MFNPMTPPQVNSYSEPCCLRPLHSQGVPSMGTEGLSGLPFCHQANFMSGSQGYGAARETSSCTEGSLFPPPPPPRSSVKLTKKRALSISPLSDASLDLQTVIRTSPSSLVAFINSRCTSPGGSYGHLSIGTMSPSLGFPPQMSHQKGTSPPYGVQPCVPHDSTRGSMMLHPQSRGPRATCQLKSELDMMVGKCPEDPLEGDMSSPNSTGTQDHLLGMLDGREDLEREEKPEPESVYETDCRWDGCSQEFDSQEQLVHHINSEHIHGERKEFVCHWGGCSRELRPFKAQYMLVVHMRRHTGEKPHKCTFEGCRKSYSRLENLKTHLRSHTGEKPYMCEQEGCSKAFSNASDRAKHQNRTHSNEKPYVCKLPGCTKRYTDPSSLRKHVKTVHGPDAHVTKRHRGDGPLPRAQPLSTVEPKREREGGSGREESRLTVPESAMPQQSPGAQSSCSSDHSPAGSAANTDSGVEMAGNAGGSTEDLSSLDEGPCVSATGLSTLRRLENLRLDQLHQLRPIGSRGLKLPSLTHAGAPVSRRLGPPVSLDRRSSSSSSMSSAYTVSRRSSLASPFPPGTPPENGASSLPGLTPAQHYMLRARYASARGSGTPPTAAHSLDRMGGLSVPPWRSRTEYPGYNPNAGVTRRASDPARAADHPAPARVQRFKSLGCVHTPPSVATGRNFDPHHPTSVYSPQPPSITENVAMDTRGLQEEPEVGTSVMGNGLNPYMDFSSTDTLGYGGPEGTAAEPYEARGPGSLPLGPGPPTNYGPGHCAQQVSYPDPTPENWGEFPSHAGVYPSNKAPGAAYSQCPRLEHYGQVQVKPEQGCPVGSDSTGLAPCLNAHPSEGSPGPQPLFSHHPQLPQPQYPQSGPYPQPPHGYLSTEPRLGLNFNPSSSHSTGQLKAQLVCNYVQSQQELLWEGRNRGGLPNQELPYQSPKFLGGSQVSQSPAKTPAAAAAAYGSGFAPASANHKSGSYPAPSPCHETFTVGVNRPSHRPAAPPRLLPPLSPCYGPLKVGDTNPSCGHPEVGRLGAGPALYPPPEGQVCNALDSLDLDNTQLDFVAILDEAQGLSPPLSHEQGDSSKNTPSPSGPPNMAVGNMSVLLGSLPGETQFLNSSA
Experimental: Hh pathway activation mediated by the overexpression of Gli, Gli2, Gli2αPKA, or Gli2αGSK. […] The cells were co-transfected the following day with 220 ng/well pcDNA-derived Gli1, Gli2, or Gli2 phosphosite mutant expression vectors and 80 ng/well of a 1:15 mixture of phRLTK (Promega) and 8XGIiBS-FL. After transfection, cells were grown to confluence (approximately 48 h). The cell were then incubated for an additional 28-32 h in DMEM containing 0.5% CS, 100 U/mL penicillin, 0.1 mg/mL streptomycin, and either DMSO, 50 μM forskolin, 50 μM LY294002, or various concentrations of the HPIs. Firefly and Renilla luciferase activities were measured using a dual luciferase kit and a Veritas microplate luminometer.

C3H10T(1/2) cells = assay: C3H10T(1/2) assay for Hh pathway activation (alkaline phosphatase); conditions: Mus musculus
Experimental: C3H10T(1/2) assay for Hh pathway activation. C3H10T(1/2) cells (ATCC) were plated into 96-well plates using DMEM containing 10% FBS, 100 U/mL penicillin, 0.1 mg/mL streptomycin, 5% Shh-N-conditioned medium, and various concentrations of the Hh pathway inhibitors. After approximately 40 h, the cells were washed with PBS and lysed in 50 μL of buffer containing 50 mM Tris-HCl, pH 9.5, 150 mM NaCl, 5 mM MgCl2, and 1% Triton X-100. Alkaline phosphatase activities in the cell lysates were quantified by adding 10 μL of the lysate to 50 μL of CDP-Star chemiluminescence reagent (Perkin Elmer) and measuring the resulting chemiluminescence on a Veritas microplate luminometer.

[1] = C3H 10T1/2, Shh-induced differentiation, alkaline phosphatase, read-out: IC50 (uM) Shh/C3H10T[1/2] cells

Row | SMILES | Microtubule disruption (NIH-3T3 cells) | Inhibition of Hh pathway activity induced by Gli1 overexpression (Gli1; listed as HPI-1) | IC50 (C3H10T(1/2) cells; [1]) | IC50 (Gli1) | Toxicity noted in Gli1 Transfected or Infection column (Gli1) | Inhibition of Hh pathway activity induced by Gli1 overexpression (Gli1; listed as HPI-3) | IC50 (C3H10T(1/2) cells; C3H 10T1/2, read-out: IC50 (uM) Shh/C3H10T[1/2] cells) | Inhibition of Hh pathway activity induced by Gli1 overexpression (Gli1) | Inhibition of Hh pathway activity induced by Gli1 overexpression (Gli1; listed as HPI-4)
1 | COCCOC(=O)C1=C(C)NC2=C(C(=O)CC(c3ccccc3OC)C2)C1c1cccc(O)c1 (mixture of isomers) [Compound 8, 4-(3-Hydroxy-phenyl)-7-(2-methoxy-phenyl)-2-methyl-5-oxo-1,4,5,6,7,8-hexahydro-quinoline-3-carboxylic acid 2-methoxy-ethyl ester] | No | inhibit Gli-induced firefly luciferase expression in a dose-dependent manner; also recorded: inhibits | 0.4 µM |  |  |  |  |  | 
2 | N#Cc1cc2c(nc1SCC(=O)Nc1nc3ccccc3s1)CCC2 [Compound 1] | No |  | 0.9 µM | 1 µM |  |  |  |  | 
3 | CCCCNC(=N)C(C)c1ccc(CC(C)C)cc1 (stereo not shown) [Compound 2] | No |  | 0.8 µM | > 30 µM |  |  |  |  | 
4 | Cc1cc(/C=c2\sc3nc4ccccc4n3c2=O)c(C)n1C(C)C [Compound 3] | No |  | 0.9 µM | 1 µM |  |  |  |  | 
5 | O=C(Nc1cccc2ccccc12)OC[C@@H]1CCCN2CCCC[C@H]12 [Compound 4] | No |  | 0.8 µM | > 30 µM |  |  |  |  | 
6 | CCC(C)NS(=O)(=O)c1ccc(Cc2ccc(S(=O)(=O)NC(C)CC)cc2)cc1 (stereo not shown) [Compound 5] | No |  | 0.9 µM | 7 µM |  |  |  |  | 
7 | CCOC(=O)c1cc2c(=O)n3ccccc3nc2n(C(C)C)c1=NC(=O)c1cc(OC)cc(OC)c1 [Compound 6] | No |  | 0.45 µM | 1.5 µM |  |  |  |  | 
8 | CCN1CCCC1CNC(=O)C1CCN(c2nc3c(C)cc(C)cc3s2)CC1 (stereo not shown) [Compound 7] | No |  | 0.8 µM | > 10 µM | (Toxic at 30) |  |  |  | 
9 | CCOC(=O)c1cn(-c2ccccc2)nc1-c1ccc(OC)c(OC)c1 [Compound 9] | No |  | 0.8 µM | > 30 µM |  |  |  |  | 
10 | O=S(=O)(Nc1cc(Cl)c(Cl)cc1Cl)c1ccc(F)cc1 [Compound 10] | No |  | 4 µM | 2 µM |  |  |  |  | 
11 | OCCNc1nc(N2CCN(c3ccccc3)CC2)nc2ccccc12 [Compound 11] | No |  | 2 µM | > 30 µM |  | no significant activity; also recorded: inactive |  |  | 
12 | CC(C)(C)N(CCNS(=O)(=O)c1ccc(-c2cc(C(F)(F)F)no2)s1)Cc1ccco1 [Compound 12] | No |  | 0.25 µM | 4 µM |  |  |  |  | 
13 | CN1CCN(C2Cc3ccccc3Sc3ccccc32)CC1 (stereo not shown) [Compound 13] | No |  | 2.5 µM | > 30 µM |  |  |  |  | 
14 | CCOc1ccc2ncc(C(=O)c3ccc(C)cc3)c(N3CCCC3)c2c1 [Compound 14] | No |  |  | > 30 µM |  |  | 0.4 µM |  | 
15 | O=C(Nc1nnc(S(=O)(=O)N2CCCCC2)s1)c1cccc(Br)c1 [Compound 15] | No |  | 4 µM | 12 µM |  |  |  |  | 
16 | CCOc1ccc(CCNc2cnnc3c(Cl)cccc23)cc1OCC [Compound 16] | No |  | 0.2 µM | > 30 µM |  |  |  |  | 
17 | COc1ccc(OC)c2c1cc1n2CC(C)(C(=O)NC2CCCCCCC2)N(CCN(C)C)C1=O (stereo not shown) [Compound 17] | No |  | 2 µM | > 30 µM |  |  |  | entirely due to a moderate increase in Renilla luciferase activity | 
18 | N#CC(C(=O)c1ccc(Cl)cc1Cl)=C1NC(=O)c2ccccc2N1 [Compound 18] | No |  | 0.7 µM | > 10 µM |  |  |  |  | no significant activity; also recorded: inactive
